Results reported in US10792289B2 (Horizon Orphan LLC, priority 2009, dated 2020).

What was measured:
stable CF patients [1] = test: Phase 2 study: CFQ-R questionnaire; assay type: in vivo, human; conditions: for CFQ-R respiratory, mean change from baseline: MITT, Baseline to Day 28
Experimental: (§1) The following dosage regimens (as nebulizer loaded doses) were evaluated: 120 mg QD (daily); 240 mg QD (daily); and 240 mg BID (twice daily).
Patients were assessed on Day 1, 7, 14, and 28, and then up to 28 days after completion of study drug, namely, Days 42 and 56. The end of the study was defined as the last visit of the last patient.
Efficacy was evaluated by microbiologic assessment of sputum samples, time to need for anti-pseudomonal antimicrobials, the Cystic Fibrosis Questionaire-Revised (CFQ-R), and pulmonary function tests. […] Pair-wise comparisons between all the treatment arms were conducted as secondary analyses.
Patients completed the CFQ-R questionnaire with domains that included: respiratory, body image, digestion, eating, emotion, health perception, physical, role/school, social, treatment burden, vitality, and weight.

stable CF patients [2] = test: Phase 2 study: time to need for anti-pseudomonal antimicrobials; assay type: in vivo, human; conditions: for Patients Requiring Anti-Pseudomonal Antimicrobials: EE population; for Number (%) of Patients Requiring Anti-Pseudomonal Antimicrobials: MITT population
Experimental: as §1
Efficacy endpoints including clinical endpoints, pulmonary function tests, and additional microbiological parameters were assessed as change from Day 1 to subsequent visits where the endpoint data was collected. Time to need for intravenous/oral/inhaled anti-pseudomonal antimicrobials were assessed from Day 1 until final visit using survival analysis. The primary population for efficacy analysis was the EE population, but efficacy endpoints were also analyzed using the MITT population.
Time to administration of intravenous/oral/inhaled anti-pseudomonal antimicrobials from Day 1 until Final visit was measured for patients with at least one of the following: decreased exercise tolerance, increased cough, increased sputum/chest congestion, and decreased appetite. The proportion of patients requiring anti-pseudomonal antimicrobials (inhaled or systemic) over time was analyzed using a Cox proportional hazards model.

[3] = MITT population, 240 mg BID vs Placebo, baseline to visit 4
[4] = MITT population, 240 mg BID, baseline to visit 4
[5] = MITT population, Combined 240 mg QD and BID

## C[C@H]1COc2c(N3CCN(C)CC3)c(F)cc3c(=O)c(C(=O)O)cn1c23 [Levofloxacin, levofloxacin]
Stable CF patients [1]; MITT population, 240 mg BID
  Respiratory domain of CFQ-R, Day 14, Median: 72.2
  Respiratory domain of CFQ-R, Day 28, Mean: 64.4
  Respiratory domain of CFQ-R, Day 28, Median: 72.2
Stable CF patients [1]; [3]
  CFQ-R Body Image, LS Mean Difference: −0.25
  CFQ-R Digestion, LS Mean Difference: 2.46
  CFQ-R Eating, LS Mean Difference: 5.70
  CFQ-R Emotion, LS Mean Difference: −0.09
  CFQ-R Health Perception, LS Mean Difference: 2.58
  CFQ-R Physical, LS Mean Difference: 5.94
  CFQ-R Respiratory, LS Mean Difference: 4.50
  CFQ-R Role/School, LS Mean Difference: −0.53
  CFQ-R Social, LS Mean Difference: 2.37
  CFQ-R Treatment Burden, LS Mean Difference: 0.06
  CFQ-R Vitality, LS Mean Difference: 3.11
  CFQ-R Weight, LS Mean Difference: 5.4
Stable CF patients [1]; [4]
  CFQ-R Body Image, LS Mean Change from Baseline: 0.34
  CFQ-R Digestion, LS Mean Change from Baseline: 1.11
  CFQ-R Eating, LS Mean Change from Baseline: 2.41
  CFQ-R Emotion, LS Mean Change from Baseline: 2.22
  CFQ-R Health Perception, LS Mean Change from Baseline: 0.52
  CFQ-R Physical, LS Mean Change from Baseline: 3.14
  CFQ-R Respiratory, LS Mean Change from Baseline: 4.06
  CFQ-R Role/School, LS Mean Change from Baseline: −1.94
  CFQ-R Social, LS Mean Change from Baseline: 0.69
  CFQ-R Treatment Burden, LS Mean Change from Baseline: −0.93
  CFQ-R Vitality, LS Mean Change from Baseline: 1.23
  CFQ-R Weight, LS Mean Change from Baseline: 10.06
Stable CF patients [1]; MITT population, 240 mg QD
  Respiratory domain of CFQ-R, Change from Baseline to Day 14, Mean: 1.4
  Respiratory domain of CFQ-R, Change from Baseline to Day 14, Median: 0.0
  Respiratory domain of CFQ-R, Change from Baseline to Day 28, Mean: 0.3
  Respiratory domain of CFQ-R, Change from Baseline to Day 28, Median: 0.0
  Respiratory domain of CFQ-R, Day 1, Mean: 61.3
  Respiratory domain of CFQ-R, Day 1, Median: 61.1
  Respiratory domain of CFQ-R, Day 14, Mean: 63.0
  Respiratory domain of CFQ-R, Day 14, Median: 66.7
  Respiratory domain of CFQ-R, Day 28, Mean: 61.6
  Respiratory domain of CFQ-R, Day 28, Median: 66.7
Stable CF patients [1]; [5]
  Respiratory domain of CFQ-R, Change from Baseline to Day 14, Mean: 4.5
  Respiratory domain of CFQ-R, Change from Baseline to Day 14, Median: 5.5
  Respiratory domain of CFQ-R, Change from Baseline to Day 28, Mean: 1.7
  Respiratory domain of CFQ-R, Change from Baseline to Day 28, Median: 0.0
  Respiratory domain of CFQ-R, Day 1, Mean: 60.9
  Respiratory domain of CFQ-R, Day 1, Median: 61.1
  Respiratory domain of CFQ-R, Day 14, Mean: 65.8
  Respiratory domain of CFQ-R, Day 14, Median: 69.4
  Respiratory domain of CFQ-R, Day 28, Mean: 63.0
  Respiratory domain of CFQ-R, Day 28, Median: 66.7
Stable CF patients [1]; 120 mg QD
  CFQ-R respiratory, mean change from baseline: 0.3 units
Stable CF patients [1]; 240 mg BID
  CFQ-R respiratory, mean change from baseline: 1.7 units
Stable CF patients [1]; 240 mg QD
  CFQ-R respiratory, mean change from baseline: 3.0 units
Stable CF patients [2]; 120 mg QD
  Patients Requiring Anti-Pseudomonal Antimicrobials: 20.0%
  Number (%) of Patients Requiring Anti-Pseudomonal Antimicrobials: 18.4%
Stable CF patients [2]; 240 mg BID
  Patients Requiring Anti-Pseudomonal Antimicrobials: 20.6%
  Number (%) of Patients Requiring Anti-Pseudomonal Antimicrobials: 20.5%
Stable CF patients [2]; 240 mg QD
  Patients Requiring Anti-Pseudomonal Antimicrobials: 25.7%
  Number (%) of Patients Requiring Anti-Pseudomonal Antimicrobials: 27.0%
Stable CF patients [2]; Combined 240 mg QD and BID
  Patients Requiring Anti-Pseudomonal Antimicrobials: 23.2%
  Number (%) of Patients Requiring Anti-Pseudomonal Antimicrobials: 23.7%
